Values of other authors in patent EP0699249B1, “METHODS FOR TREATING NON-COTTON-CONTAINING FABRICS WITH CELLULASE” (GENENCOR INTERNATIONAL, INC., priority 1994, dated 1995).

Target: CBH I and CBH II from Trichoderma longibrachiatum
Settings: competitive inhibition of CBH components

Ki: ~1 mM
SMILES: O=C[C@H](O)[C@@H](O)[C@H](O[C@@H]1O[C@H](CO)[C@@H](O)[C@H](O)[C@H]1O)[C@H](O)CO [cellobiose]
